Experimental findings from US20260022142A1, “MACROCYCLIC IMMUNOMODULATORS” (Bristol-Myers Squibb Company, priority 2022, published 2026) are described below.

pIC50: −log10 of the molar value. Numbered stars: 1 amine (or outer) side, 2 acyl side, 3 side chain; on linkers, the order of the positions; unused ones are H or OH. Bridge positions count the residues as written; N and C are the ends. Square brackets hold non-standard residues; d marks the D form. Peptide text beside a SMILES is read from it. * marks the point of attachment. ξ: configuration not given here. Phe(4-COOH) = N[C@@H](Cc1ccc(C(=O)O)cc1)C(=O)O; Bip = N[C@@H](Cc1ccc(-c2ccccc2)cc1)C(=O)O; Phe(3-Me) = Cc1cccc(C[C@H](N)C(=O)O)c1; βAsp = O=C(O)[C@H](CC(=O)[*:2])N[*:1]; NH(CH2)12COOH = O=C(O)CCCCCCCCCCCCN*; PEG6 = NCCOCCOCCOCCOCCOCCOCCC(=O)O; X12 = CC(N)[C@H](N[*:1])C(=O)[*:2]; hArg = N=C(N)NCCCC[C@H](N)C(=O)O; 4Pal = N[C@@H](Cc1ccncc1)C(=O)O; Cha = N[C@@H](CC1CCCCC1)C(=O)O; Cit = NC(=O)NCCC[C@H](N)C(=O)O; Ile(3ξ) = CCC(C)[C@H](N)C(=O)O; Thr(3ξ) = CC(O)[C@H](N)C(=O)O; 12Ado = NCCCCCCCCCCCC(=O)O; Carboxymethyl = O=C(O)C*; Orn = NCCC[C@H](N)C(=O)O; Aun = NCCCCCCCCCCC(=O)O; Dab = NCC[C@H](N)C(=O)O; AEEA = NCCOCCOCC(=O)O

In this test the target is T1, PD-1/PD-L1 interaction (PE-labeled human PD-L1-Ig binding to Jurkat cell line over-expressing human PD-1) (Homo sapiens, UniProt Q15116).
T1 construct: expressed in transfected cells; host or cells: Jurkat
T1 sequence (Q15116 25-288): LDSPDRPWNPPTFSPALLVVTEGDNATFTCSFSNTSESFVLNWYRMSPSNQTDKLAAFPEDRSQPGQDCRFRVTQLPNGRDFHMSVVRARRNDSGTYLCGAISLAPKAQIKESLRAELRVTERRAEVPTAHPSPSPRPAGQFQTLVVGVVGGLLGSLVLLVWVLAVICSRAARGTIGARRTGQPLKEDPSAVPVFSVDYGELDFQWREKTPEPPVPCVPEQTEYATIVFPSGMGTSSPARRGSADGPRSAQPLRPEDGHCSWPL
The test can be described thus: Jurkat-PD-1 Cell Binding High-Content Screening Assay (CBA). The test is classed as cell-based. The conditions noted are these: Jurkat cell line over-expressing human PD-1; PE-labeled PD-L1-Ig 20 nM final; read-out: Jurkat hPD1-PDL1 IC50. An outline of the steps: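 First, compound is added to PD-1-expressing Jurkat cells in serum-containing DMEM and left 2 h at 37° C. Next, PE-conjugated PD-L1-Ig is introduced at 20 nM final concentration for 1 hour. Finally, cells are fixed in 4% paraformaldehyde with Hoechst 33342, washed and imaged.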
Regarding `CC(C)C[C@H]1NC(=O)[C@H](CCCN)NC(=O)[C@H](C(C)C)NC(=O)[C@H](Cc2ccc(-c3ccccc3)cc2)NC(=O)[C@H](C(C)C)NC(=O)[C@H](Cc2c[nH]c3ccccc23)NC(=O)[C@H](CC(=O)O)NC(=O)[C@H](Cc2ccc(C(=O)O)cc2)NC(=O)[C@H](Cc2ccc(OCC(=O)O)cc2)NC(=O)CSC[C@@H](C(=O)NCCOCCOCC(=O)N[C@@H](CC(=O)NCCCCCCCCCCCC(=O)O)C(=O)O)NC(=O)[C@H](C(C)O)NC(=O)[C@H](C(C)C)NC(=O)[C@H](CC2CCCCC2)NC(=O)[C@H](CCN)NC1=O` (stereo partly drawn) [Compound 3042] ({CH2CO}-Y(Carboxymethyl)[Phe(4-COOH)]DWV[Bip]V[Orn][dL][Dab][Cha]V[Thr(3ξ)]C[AEEA][βAsp][12Ado]-OH; thioether N-14), the pIC50 was 7.94.

Consider `CC(C)C[C@H]1NC(=O)[C@H](CCCN)NC(=O)[C@H](C(C)C)NC(=O)[C@H](Cc2ccc(-c3ccccc3)cc2)NC(=O)[C@H](C(C)C)NC(=O)[C@H](Cc2c[nH]c3ccccc23)NC(=O)[C@H](CC(=O)O)NC(=O)[C@H](Cc2ccc(OCC(=O)O)cc2)NC(=O)[C@H](CCCCNC(=N)N)NC(=O)CSC[C@@H](C(=O)NCC(=O)NCCOCCOCC(=O)NCCCCCCCCCCCCC(=O)O)NC(=O)[C@H](CO)NC(=O)[C@H](C(C)C)NC(=O)[C@H](CC2CCCCC2)NC(=O)[C@H](CCN)NC1=O` [Compound 3043] ({CH2CO}-[hArg]Y(Carboxymethyl)DWV[Bip]V[Orn][dL][Dab][Cha]VSCG[AEEA]-{NH(CH2)12COOH}; thioether N-14), for which the pIC50 was 7.81.

Consider `CC(C)C[C@H]1NC(=O)[C@H](CCCN)NC(=O)[C@H](CCC(=O)O)NC(=O)[C@H](Cc2ccc(-c3ccccc3)cc2)NC(=O)[C@H](C(C)C)NC(=O)[C@H](Cc2c[nH]c3ccccc23)NC(=O)[C@H](CC(=O)O)NC(=O)[C@H](Cc2ccc(C(=O)O)cc2)NC(=O)[C@H](Cc2ccc(OCC(=O)O)cc2)NC(=O)CSC[C@@H](C(=O)N[C@@H](CC(N)=O)C(=O)NCCOCCOCCOCCOCCOCCOCCC(=O)N[C@@H](CCCN)C(=O)NCCCCCCCCCCCC(=O)O)NC(=O)[C@H](CO)NC(=O)[C@H](C(C)C)NC(=O)[C@H](CC2CCCCC2)NC(=O)[C@H](CCN)NC1=O` [Compound 3045] ({CH2CO}-Y(Carboxymethyl)[Phe(4-COOH)]DWV[Bip]E[Orn][dL][Dab][Cha]VSCN[PEG6][Orn][12Ado]-OH; thioether N-14), for which the pIC50 is 8.19. As for `CC(C)C[C@H]1NC(=O)[C@H](CCCN)NC(=O)[C@H](CCC(=O)O)NC(=O)[C@H](Cc2ccc(-c3ccccc3)cc2)NC(=O)[C@H](C(C)C)NC(=O)[C@H](Cc2c[nH]c3ccccc23)NC(=O)[C@H](CC(=O)O)NC(=O)[C@H](Cc2ccc(C(=O)O)cc2)NC(=O)[C@H](C(C)N)NC(=O)CSC[C@@H](C(=O)N[C@@H](CC(N)=O)C(=O)NCCOCCOCCOCCOCCOCCOCCC(=O)N[C@@H](CCCN)C(=O)NCCCCCCCCCCCC(=O)O)NC(=O)[C@H](CO)NC(=O)[C@H](C(C)C)NC(=O)[C@H](CC2CCCCC2)NC(=O)[C@H](CCN)NC1=O` (stereo partly drawn) [Compound 3046] ({CH2CO}-[X12][Phe(4-COOH)]DWV[Bip]E[Orn][dL][Dab][Cha]VSCN[PEG6][Orn][12Ado]-OH; thioether N-14), the pIC50 is 7.88. As to `Cc1cccc(C[C@@H]2NC(=O)[C@H](CC(=O)O)NC(=O)[C@H](Cc3ccc(OCC(=O)O)cc3)NC(=O)[C@H](CCN)NC(=O)CSC[C@@H](C(=O)NCCOCCOCC(=O)NCCCCCCCCCCC(=O)O)NC(=O)[C@H](C(C)O)NC(=O)[C@H](C(C)C)NC(=O)[C@H](CC3CCCCC3)NC(=O)[C@H](CCN)NC(=O)[C@@H](CC(C)C)NC(=O)[C@H](CCCN)NC(=O)[C@H](CCCNC(N)=O)NC(=O)[C@H](Cc3ccc(-c4ccccc4)cc3)NC(=O)[C@H](C(C)C)NC2=O)c1` (stereo partly drawn) [Compound 3047] ({CH2CO}-[Dab]Y(Carboxymethyl)D[Phe(3-Me)]V[Bip][Cit][Orn][dL][Dab][Cha]V[Thr(3ξ)]C[AEEA][Aun]-OH; thioether N-14), the pIC50 was 7.88. Take `CC(C)C[C@H]1NC(=O)[C@H](CCCN)NC(=O)[C@H](C(C)C)NC(=O)[C@H](Cc2ccc(-c3ccccc3)cc2)NC(=O)[C@H](C(C)C)NC(=O)[C@H](Cc2c[nH]c3ccccc23)NC(=O)[C@H](CC(=O)O)NC(=O)[C@H](Cc2ccc(OCC(=O)O)cc2)NC(=O)[C@H](Cc2ccncc2)NC(=O)CSC[C@@H](C(=O)NCCOCCOCC(=O)NCCCCCCCCCCC(=O)O)NC(=O)[C@H](C(C)O)NC(=O)[C@H](C(C)C)NC(=O)[C@H](CC2CCCCC2)NC(=O)[C@H](CCN)NC1=O` (stereo partly drawn) [Compound 3048] ({CH2CO}-[4Pal]Y(Carboxymethyl)DWV[Bip]V[Orn][dL][Dab][Cha]V[Thr(3ξ)]C[AEEA][Aun]-OH; thioether N-14): the pIC50 is 7.63. Regarding `Cc1cccc(C[C@@H]2NC(=O)[C@H](CC(=O)O)NC(=O)[C@H](Cc3ccc(OCC(=O)O)cc3)NC(=O)[C@H](CCCNC(N)=O)NC(=O)CSC[C@@H](C(=O)N[C@@H](CCCN)C(=O)NCCCCCCCCCCC(=O)O)NC(=O)[C@H](CO)NC(=O)[C@H](C(C)C)NC(=O)[C@H](CC3CCCCC3)NC(=O)[C@H](CCN)NC(=O)[C@@H](CC(C)C)NC(=O)[C@H](CCCN)NC(=O)[C@H](C(C)C)NC(=O)[C@H](Cc3ccc(-c4ccccc4)cc3)NC(=O)[C@H](C(C)C)NC2=O)c1` [Compound 3049] ({CH2CO}-[Cit]Y(Carboxymethyl)D[Phe(3-Me)]V[Bip]V[Orn][dL][Dab][Cha]VSC[Orn][Aun]-OH; thioether N-14), the negative logarithm of the IC50 (pIC50) was 7.40. On to `CC(C)C[C@H]1NC(=O)[C@H](CCCN)NC(=O)[C@H](C(C)C)NC(=O)[C@H](Cc2ccc(-c3ccccc3)cc2)NC(=O)[C@H](C(C)C)NC(=O)[C@H](Cc2c[nH]c3ccccc23)NC(=O)[C@H](CC(=O)O)NC(=O)[C@H](Cc2ccc(OCC(=O)O)cc2)NC(=O)[C@H](C(C)O)NC(=O)CSC[C@@H](C(=O)NCCOCCOCC(=O)N[C@@H](CCCCN)C(=O)NCCCCCCCCCCC(=O)O)NC(=O)[C@H](C(C)O)NC(=O)[C@H](C(C)C)NC(=O)[C@H](CC2CCCCC2)NC(=O)[C@H](CCN)NC1=O` (stereo partly drawn) [Compound 3052] ({CH2CO}-[Thr(3ξ)]Y(Carboxymethyl)DWV[Bip]V[Orn][dL][Dab][Cha]V[Thr(3ξ)]C[AEEA]K[Aun]-OH; thioether N-14), for which the pIC50 was 8.00. Regarding `CC(C)C[C@H]1NC(=O)[C@H](CCCN)NC(=O)[C@H](C(C)C)NC(=O)[C@H](Cc2ccc(-c3ccccc3)cc2)NC(=O)[C@H](C(C)C)NC(=O)[C@H](Cc2c[nH]c3ccccc23)NC(=O)[C@H](CC(=O)O)NC(=O)[C@H](Cc2ccc(OCC(=O)O)cc2)NC(=O)[C@H](C(C)O)NC(=O)CSC[C@@H](C(=O)N[C@H](CC(N)=O)C(=O)NCCOCCOCC(=O)NCCCCCCCCCCC(=O)O)NC(=O)[C@H](CO)NC(=O)[C@H](C(C)C)NC(=O)[C@H](CC2CCCCC2)NC(=O)[C@H](CCN)NC1=O` (stereo partly drawn) [Compound 3053] ({CH2CO}-[Thr(3ξ)]Y(Carboxymethyl)DWV[Bip]V[Orn][dL][Dab][Cha]VSC[dN][AEEA][Aun]-OH; thioether N-14), the pIC50 was 8.06.

As for `CC(C)C[C@H]1NC(=O)[C@H](CCCN)NC(=O)[C@H](C(C)C)NC(=O)[C@H](Cc2ccc(-c3ccccc3)cc2)NC(=O)[C@H](C(C)C)NC(=O)[C@H](Cc2c[nH]c3ccccc23)NC(=O)[C@H](CC(=O)O)NC(=O)[C@H](Cc2ccc(OCC(=O)O)cc2)NC(=O)[C@H](Cc2c[nH]cn2)NC(=O)CSC[C@@H](C(=O)N[C@H](C)C(=O)NCCOCCOCC(=O)NCCCCCCCCCCC(=O)O)NC(=O)[C@H](C(C)O)NC(=O)[C@H](C(C)C)NC(=O)[C@H](CC2CCCCC2)NC(=O)[C@H](CCN)NC1=O` (stereo partly drawn) [Compound 3054] ({CH2CO}-HY(Carboxymethyl)DWV[Bip]V[Orn][dL][Dab][Cha]V[Thr(3ξ)]C[dA][AEEA][Aun]-OH; thioether N-14), the pIC50 was 7.84. Consider `CC(C)C[C@H]1NC(=O)[C@H](CCCN)NC(=O)[C@H](Cc2c[nH]cn2)NC(=O)[C@H](Cc2ccc(-c3ccccc3)cc2)NC(=O)[C@H](C(C)C)NC(=O)[C@H](Cc2c[nH]c3ccccc23)NC(=O)[C@H](CC(=O)O)NC(=O)[C@H](Cc2ccc(OCC(=O)O)cc2)NC(=O)[C@H](C(C)O)NC(=O)CSC[C@@H](C(=O)N[C@@H](CC(=O)NCCOCCOCC(=O)N[C@@H](CCCN)C(=O)NCCCCCCCCCCC(=O)O)C(=O)O)NC(=O)[C@H](CO)NC(=O)[C@H](C(C)C)NC(=O)[C@H](CC2CCCCC2)NC(=O)[C@H](CCN)NC1=O` (stereo partly drawn) [Compound 3056] ({CH2CO}-[Thr(3ξ)]Y(Carboxymethyl)DWV[Bip]H[Orn][dL][Dab][Cha]VSC[βAsp][AEEA][Orn][Aun]-OH; thioether N-14), for which the pIC50 is 7.75. On to `CC(C)C[C@H]1NC(=O)[C@H](CCCN)NC(=O)[C@H](Cc2c[nH]cn2)NC(=O)[C@H](Cc2ccc(-c3ccccc3)cc2)NC(=O)[C@H](C(C)C)NC(=O)[C@H](Cc2c[nH]c3ccccc23)NC(=O)[C@H](CC(=O)O)NC(=O)[C@H](Cc2ccc(OCC(=O)O)cc2)NC(=O)[C@H](Cc2ccccc2)NC(=O)CSC[C@@H](C(=O)N[C@@H](CCCN)C(=O)NCCOCCOCC(=O)NCCCCCCCCCCC(=O)O)NC(=O)[C@H](CO)NC(=O)[C@H](C(C)C)NC(=O)[C@H](CC2CCCCC2)NC(=O)[C@H](CCN)NC1=O` [Compound 3057] ({CH2CO}-FY(Carboxymethyl)DWV[Bip]H[Orn][dL][Dab][Cha]VSC[Orn][AEEA][Aun]-OH; thioether N-14), for which the pIC50 is 7.27. For `CCC(C)[C@@H]1NC(=O)[C@H](Cc2ccc(-c3ccccc3)cc2)NC(=O)[C@H](C(C)C)NC(=O)[C@H](Cc2c[nH]c3ccccc23)NC(=O)[C@H](CC(=O)O)NC(=O)[C@H](Cc2ccc(C(=O)O)cc2)NC(=O)[C@H](Cc2ccncc2)NC(=O)CSC[C@@H](C(=O)N[C@H](CC(N)=O)C(=O)NCCOCCOCC(=O)N[C@@H](CCCN)C(=O)NCCCCCCCCCCC(=O)O)NC(=O)[C@H](CO)NC(=O)[C@H](C(C)C)NC(=O)[C@H](CC2CCCCC2)NC(=O)[C@H](CCN)NC(=O)[C@@H](CC(C)C)NC(=O)[C@H](CCCN)NC1=O` (stereo partly drawn) [Compound 3058] ({CH2CO}-[4Pal][Phe(4-COOH)]DWV[Bip][Ile(3ξ)][Orn][dL][Dab][Cha]VSC[dN][AEEA][Orn][Aun]-OH; thioether N-14), the pIC50 is 7.89.

Broadly, the pIC50 is the IC50 on a negative log10 scale, so that one unit is a factor of ten.
